Measurements reported in patent publication USRE47689E1, “Compounds for treating spinal muscular atrophy” (PTC Therapeutics, Inc., priority 2011, dated 2019).
Read-outs that look alike come from different tables or passages of the source.

Assays:
[1] = test system: SMN2 minigene (full length SMN2 minigene mRNA containing SMN2 exon 7); experiment: SMN2 minigene mRNA splicing RT-qPCR assay in cultured cells; assay type: cell-based, human; conditions: Homo sapiens, HEK293-H, read-out: EC1.5x for production of full length SMN2 mRNA
Method in brief: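 Full-length SMN2 minigene mRNA (exon 7 included), minigene-specific and not endogenous SMN, quantified by RT-qPCR multiplexed with GAPDH in stably transfected HEK293H cells after 24 h compound exposure at 37° C. Abundance from efficiency-corrected Ct, normalized to GAPDH and vehicle; EC1.5x reported as star bins.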

Smn protein = Smn protein assay in cultured cells (SMN HTRF); assay type: cell-based, human; conditions: 48 hours; for maximum fold (Fold) increase of Smn protein: SMA patient fibroblast cells, 7-point concentration data, fold increase relative to vehicle control (SMN HTRF); for EC1.5x (concentration giving 1.5-fold Smn protein increase): SMA Type 1 patient fibroblast cells (GM03813), 7-point concentration curve, SMN HTRF, concentration producing 1.5 times Smn protein vs DMSO vehicle control, read-out: EC1.5x for Smn protein expression
Method in brief: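 Smn in SMA fibroblast lysates, measured by anti-SMN HTRF after 48 h compound exposure; EC1.5x from fold change over vehicle.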

[2] = HEK293H cells stably transfected with SMN2-A minigene, 24 hours, 7-point concentration curve, 1.5-fold relative to vehicle-treated cells

Structure (SMILES) | EC (1.5-fold) [1, 2] | maximum fold (Fold) increase of Smn protein (Smn protein) | melting point | EC (1.5-fold) ([1]; 24 h) | EC1.5x (concentration giving 1.5-fold Smn protein increase) (Smn protein)
COc1cccc(-c2cc3ccc(N4C[C@@H](C)N[C@@H](C)C4)cc3oc2=O)n1 [Compound 315, 7-[(3R,5S)-3,5-dimethylpiperazin-1-yl]-3-(6-methoxypyridin-2-yl)-2H-chromen-2-one] | 0.3 to 1 µM | * (maximum fold increase of ≤1.2) | 175 to 177 °C |  | 
Cc1csc(-c2cc3ccc(N4CCNCC4)cc3oc2=O)c1 [Compound 318, 3-(4-methylthiophen-2-yl)-7-(piperazin-1-yl)-2H-chromen-2-one] |  | * (maximum fold increase of ≤1.2) | 218 to 220 °C | 1 to 3 µM | 
O=c1oc2cc(N3CCNCC3)ccc2cc1-c1ccsc1 [Compound 319, 7-(piperazin-1-yl)-3-(thiophen-3-yl)-2H-chromen-2-one] |  | ** (fold increase between >1.2 and ≤1.35) | 175 to 177 °C | 1 to 3 µM | 
CN1CCN(c2ccc3cc(-c4ccsc4)c(=O)oc3c2)CC1 [Compound 320, 7-(4-methylpiperazin-1-yl)-3-(thiophen-3-yl)-2H-chromen-2-one] |  | * (maximum fold increase of ≤1.2) | 151 to 153 °C | 1 to 3 µM | 
Cc1ccn2cc(-c3cc4ccc(O[C@@H]5CCNC5)cc4oc3=O)nc2n1.Cl.Cl [Compound 322, 3-(7-methylimidazo [1,2-a]pyrimidin-2-yl)-7-[(3R)-pyrrolidin-3-yloxy]-2H-chromen-2-one hydrochloride (1:2)] | 0.3 to 1 µM | ** (fold increase between >1.2 and ≤1.35) | 292 to 296 °C |  | 
Cl.Cl.O=c1oc2cc(O[C@@H]3CCNC3)ccc2cc1-c1cn2ccsc2n1 [Compound 324, 3-(imidazo[2,1-b][1,3]thiazol-6-yl)-7-[(3R)-pyrrolidin-3-yloxy]-2H-chromen-2-one hydrochloride (1:2)] | 0.3 to 1 µM | *** (fold increase between >1.35 and ≤1.5) | 252 to 256 °C |  | 
Cc1cn2cc(-c3cc4ccc(O[C@@H]5CCNC5)cc4oc3=O)nc2s1.Cl.Cl [Compound 325, 3-(2-methylimidazo[2,1-b][1,3]thiazol-6-yl)-7-[(3R)-pyrrolidin-3-yloxy]-2H-chromen-2-one hydrochloride (1:2)] | 0.3 to 1 µM | * (maximum fold increase of ≤1.2) | 230 to 235 °C |  | 
Cc1ccc2nc(-c3cc4ccc(O[C@@H]5CCNC5)cc4oc3=O)cn2c1.Cl.Cl [Compound 326, 3-(6-methylimidazo[1,2-a]pyridin-2-yl)-7-[(3R)-pyrrolidin-3-yloxy]-2H-chromen-2-one hydrochloride (1:2)] | 0.1 to 0.3 µM | ** (fold increase between >1.2 and ≤1.35) | 261 to 265 °C |  | 
Cc1cnc2nc(-c3cc4ccc(O[C@@H]5CCNC5)cc4oc3=O)cn2c1.Cl.Cl [Compound 327, 3-(6-methylimidazo[1,2-a]pyrimidin-2-yl)-7-[(3R)-pyrrolidin-3-yloxy]-2H-chromen-2-one hydrochloride (1:2)] | 0.3 to 1 µM | ** (fold increase between >1.2 and ≤1.35) | 255 to 258 °C |  | 
Cc1cc(F)cn2cc(-c3cc4ccc(N5CCNCC5)cc4oc3=O)nc12 [Compound 328, 3-(6-fluoro-8-methylimidazo[1,2-a]pyridin-2-yl)-7-(piperazin-1-yl)-2H-chromen-2-one] | 0.3 to 1 µM | * (maximum fold increase of ≤1.2) | 223 to 230 °C |  | 
Cc1cc(F)cn2cc(-c3cc4ccc(N5CCN(C)CC5)cc4oc3=O)nc12 [Compound 329, 3-(6-fluoro-8-methylimidazo[1,2-a]pyridin-2-yl)-7-(4-methylpiperazin-1-yl)-2H-chromen-2-one] | 0.3 to 1 µM | * (maximum fold increase of ≤1.2) | 223 to 233 °C |  | 
Cc1cc(F)cn2cc(-c3cc4ccc(N5CCCN(C)CC5)cc4oc3=O)nc12 [Compound 330, 3-(6-fluoro-8-methylimidazo[1,2-a]pyridin-2-yl)-7-(4-methyl-1,4-diazepan-1-yl)-2H-chromen-2-one] | 0.3 to 1 µM | * (maximum fold increase of ≤1.2) | 191 to 198 °C |  | 
Cc1cc(F)cn2cc(-c3cc4ccc(N5C[C@@H](C)N[C@@H](C)C5)cc4oc3=O)nc12 [Compound 331, 7-[(3R,5S)-3,5-dimethylpiperazin-1-yl]-3-(6-fluoro-8-methylimidazo[1,2-a]pyridin-2-yl)-2H-chromen-2-one] | 0.3 to 1 µM | * (maximum fold increase of ≤1.2) | 290 to 300 °C |  | 
CCc1cc(C)cn2cc(-c3cc4ccc(N5CCCN(C)CC5)cc4oc3=O)nc12 [Compound 332, 3-(8-ethyl-6-methylimidazo[1,2-a]pyridin-2-yl)-7-(4-methyl-1,4-diazepan-1-yl)-2H-chromen-2-one] | 0.3 to 1 µM | * (maximum fold increase of ≤1.2) | 172 to 176 °C |  | 
CCc1ccn2cc(-c3cc4ccc(N5CCCN(C)CC5)cc4oc3=O)nc2c1 [Compound 333, 3-(7-ethylimidazo[1,2-a]pyridin-2-yl)-7-(4-methyl-1,4-diazepan-1-yl)-2H-chromen-2-one] | 0.3 to 1 µM | * (maximum fold increase of ≤1.2) | 181 to 187 °C |  | 
CCc1cc(C)cn2cc(-c3cc4ccc(N5CCNCC5)cc4oc3=O)nc12 [Compound 334, 3-(8-ethyl-6-methylimidazo[1,2-a]pyridin-2-yl)-7-(piperazin-1-yl)-2H-chromen-2-one] | 0.1 to 0.3 µM | * (maximum fold increase of ≤1.2) | 198 to 208 °C |  | 
CN1CCCN(c2cc(F)c3cc(-c4cn5cccnc5n4)c(=O)oc3c2)CC1 [Compound 335, 5-fluoro-3-(imidazo[1,2-a]pyrimidin-2-yl)-7-(4-methyl-1,4-diazepan-1-yl)-2H-chromen-2-one] | 0.1 to 0.3 µM | *** (fold increase between >1.35 and ≤1.5) | 300 to 302 °C |  | 1000 to 3000 nM
O=c1oc2cc(N3CCCNCC3)cc(F)c2cc1-c1cn2cccnc2n1 [Compound 336, 7-(1,4-diazepan-1-yl)-5-fluoro-3-(imidazo[1,2-a]pyrimidin-2-yl)-2H-chromen-2-one] | 0.3 to 1 µM | * (maximum fold increase of ≤1.2) | 305 to 307 °C |  | 
CN1CCCN(c2ccc3cc(-c4cn5cc(Cl)cnc5n4)c(=O)oc3c2)CC1 [Compound 337, 3-(6-chloroimidazo[1,2-a]pyrimidin-2-yl)-7-(4-methyl-1,4-diazepan-1-yl)-2H-chromen-2-one] | 1 to 3 µM | * (maximum fold increase of ≤1.2) | 289 to 292 °C |  | 
C[C@@H]1CN(c2ccc3cc(-c4cn5cccc(F)c5n4)c(=O)oc3c2)C[C@H](C)N1 [Compound 338, 7-[(3R,5S)-3,5-dimethylpiperazin-1-yl]-3-(8-fluoroimidazo[1,2-a]pyridin-2-yl)-2H-chromen-2-one] | 0.1 to 0.3 µM | ** (fold increase between >1.2 and ≤1.35) | 176 to 180 °C |  | 3000 to 10000 nM
C[C@H]1CN(c2ccc3cc(-c4cn5cccc(Cl)c5n4)c(=O)oc3c2)CCN1C [Compound 339, 3-(8-chloroimidazo[1,2-a]pyridin-2-yl)-7-[(3S)-3,4-dimethylpiperazin-1-yl]-2H-chromen-2-one] | 0.1 to 0.3 µM | * (maximum fold increase of ≤1.2) | 184 to 186 °C |  | 
CCc1cc(C)cn2cc(-c3cc4ccc(N5CCN(C)CC5)cc4oc3=O)nc12 [Compound 340, 3-(8-ethyl-6-methylimidazo[1,2-a]pyridin-2-yl)-7-(4-methylpiperazin-1-yl)-2H-chromen-2-one] | 0.3 to 1 µM | * (maximum fold increase of ≤1.2) | 203 to 210 °C |  | 
CCc1cc(C)cn2cc(-c3cc4ccc(N5C[C@@H](C)N[C@@H](C)C5)cc4oc3=O)nc12 [Compound 341, 7-[(3R,5S)-3,5-dimethylpiperazin-1-yl]-3-(8-ethyl-6-methylimidazo[1,2-a]pyridin-2-yl)-2H-chromen-2-one] | 0.3 to 1 µM | * (maximum fold increase of ≤1.2) | 203 to 208 °C |  | 
Cc1cc(Cl)c2nc(-c3cc4ccc(N5C[C@@H](C)N[C@@H](C)C5)cc4oc3=O)cn2c1 [Compound 342, 3-(8-chloro-6-methylimidazo[1,2-a]pyridin-2-yl)-7-[(3R,5S)-3,5-dimethylpiperazin-1-yl]-2H-chromen-2-one] | 0.1 to 0.3 µM | ** (fold increase between >1.2 and ≤1.35) | 258 to 263 °C |  | 
